Reference: BindingDB's records for doi:10.1016/j.ejmech.2018.01.053 (University of Southern California, 2018)

Assays:
[1] = Inhibition of BRAF V600E mutant in human A375 cells assessed as reduction in cell proliferation incubated for 96 hrs by MTT assay
[2] = Inhibition of BCR-ABL (unknown origin) expressed in mouse BA/F3 cells assessed as reduction in cell proliferation incubated for 48 hrs by MTT assay

| IC50 [1] [nM] | IC50 [2] [nM] | SMILES |
| --- | --- | --- |
| > 10000 | 942 | CC(C)n1nc(C#Cc2cccc3cc(-c4cccc(C(F)(F)F)c4)ncc23)c2c(N)ncnc21 |
| 97 | – | CC(C)n1nc(C#Cc2cccc(NC(=O)c3cccc(C(F)(F)F)c3)c2)c2c(N)ncnc21 |
| > 10000 | 354 | CC(C)n1nc(C#Cc2cccc3cc(-c4ccc(CN5CCN(C)CC5)cc4)ncc23)c2c(N)ncnc21 |
| 2300 | 435 | Cc1ccc2cc(-c3cccc(C(F)(F)F)c3)ncc2c1C#Cc1nn(C(C)C)c2ncnc(N)c12 |
| > 10000 | 1110 | CCn1nc(C#Cc2cccc3cc(-c4cccc(C(F)(F)F)c4)ncc23)c2c(N)ncnc21 |
